Results as given in US10913750B2, “Tubulin-binding compounds, compositions and uses related thereto” (The Regents of the University of California, priority 2015, dated 2021).

Tests used:
[1] = system: HeLa cells; experiment: CellTiter-Glo cell viability, HeLa cells; format: cell-based; details: Homo sapiens; HeLa cells, 72 hours, CellTiter-Glo
Experimental: (§1) The cell viability IC50 of each compound was determined using Promega CellTiter-Glo Luminescent Cell Viability Assay kit by measuring the total ATP levels to quantify the number of metabolically active cells upon drug treatment as described in Crouch et al., J Immunol Methods 1993, 160, (1), 81-8. Briefly, the compounds were suspended in DMSO at 10 mM and diluted in 384 plates (20 μl/well in DMSO) in triplicate by a 14-point titration (12 nM to 100 μM). 50 μl of HeLa cells or patient derived glioblastoma cells (HK-309) (2000 cells/well) were then treated with the prepared dilutions of the drugs (0.5 μl) and incubated at 37° C. and 5% CO2. 72 hours later 50 μl of CellTiter-Glo reagent was added to each well followed by a 2 minutes shaking and a 10-minute incubation to lyse the cells. The relative luminescent intensity units (RLU) of each well was measured using a Tecan M1000 microplate reader (Tecan Group Ltd.) with its green filter and 1 second integration time.
(§2) Cells used in Example 2 and other examples disclosed herein were cultured as follows: Adherent HeLa cells and patient derived glioblastoma cells were grown with 5% CO2 at 37° C. in F12:DMEM 50:50 medium (Invitrogen) containing 10% FBS and 1% penicillin/streptomycin. To obtain HeLa cells synchronized in mitosis, cycling cells were treated with 2 mM thymidine (Sigma-Aldrich) for eighteen hours, washed three times with PBS, and released into fresh media until they entered mitosis eight hours post-release. Patient-derived glioblastoma cells (HK-309) were collected and grown with approval from the UCLA Institutional Review Board. HK-309 was derived from a recurrent glioblastoma taken from a person. The cells were initially propagated as cancer stem cell-containing spheres in serum-free medium containing basic fibroblast growth factor and epidermal growth factor (Preprotech) as described previously by Visnyei et al., Mol Cancer Ther 2011, 10, (10), 1818-28.
For mitotic arrest IC50s, cells were treated with a twenty-point-2-fold-titration (190 pM to 10 μM) of each compound tested for 20 hours. For cell viability IC50s, cells were treated with a fourteen-point-2-fold-titration (12.2 nM to 100 μM). Mitotic arrest IC50 was determined by measuring the percent G2/M arrest using the Vybrant DyeCycle Green (Invitrogen) assay described above. Cell viability IC50 was determined using the CellTiter-Glo Assay (Promega), which measures total ATP levels. Plates were read with a Tecan M1000 micro-plate reader at 540 nm. The CDD software was used for generating IC50 and IC90 values.

[2] = system: patient-derived glioblastoma cells (HK-309); experiment: CellTiter-Glo cell viability, patient-derived glioblastoma cells; format: cell-based; details: HK-309, 72 hours
Experimental: as §1, §2

[3] = target: T1, tubulin (Sus scrofa, UniProt P02554); experiment: In vitro tubulin polymerization assay (HTS-tubulin polymerization kit, Cytoskeleton); format: biochemical; details: 3 μM compound, fluorescence, 70 minutes at 37° C.
T1 construct: purchased Cytoskeleton Inc. BK011P
T1 sequence (P02554 whole entry): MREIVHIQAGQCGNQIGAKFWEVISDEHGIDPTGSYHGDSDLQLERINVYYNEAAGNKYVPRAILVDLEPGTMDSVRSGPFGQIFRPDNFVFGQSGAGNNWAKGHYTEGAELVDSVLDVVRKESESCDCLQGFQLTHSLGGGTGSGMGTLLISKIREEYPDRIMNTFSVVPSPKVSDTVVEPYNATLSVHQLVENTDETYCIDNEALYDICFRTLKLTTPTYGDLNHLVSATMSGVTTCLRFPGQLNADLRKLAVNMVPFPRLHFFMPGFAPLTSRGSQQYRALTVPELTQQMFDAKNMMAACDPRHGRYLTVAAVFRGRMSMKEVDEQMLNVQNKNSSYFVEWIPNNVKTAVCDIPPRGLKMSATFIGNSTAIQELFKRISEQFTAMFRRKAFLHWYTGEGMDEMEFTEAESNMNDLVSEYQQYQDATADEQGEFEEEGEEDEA
T1 sequence (P02550 whole entry partner): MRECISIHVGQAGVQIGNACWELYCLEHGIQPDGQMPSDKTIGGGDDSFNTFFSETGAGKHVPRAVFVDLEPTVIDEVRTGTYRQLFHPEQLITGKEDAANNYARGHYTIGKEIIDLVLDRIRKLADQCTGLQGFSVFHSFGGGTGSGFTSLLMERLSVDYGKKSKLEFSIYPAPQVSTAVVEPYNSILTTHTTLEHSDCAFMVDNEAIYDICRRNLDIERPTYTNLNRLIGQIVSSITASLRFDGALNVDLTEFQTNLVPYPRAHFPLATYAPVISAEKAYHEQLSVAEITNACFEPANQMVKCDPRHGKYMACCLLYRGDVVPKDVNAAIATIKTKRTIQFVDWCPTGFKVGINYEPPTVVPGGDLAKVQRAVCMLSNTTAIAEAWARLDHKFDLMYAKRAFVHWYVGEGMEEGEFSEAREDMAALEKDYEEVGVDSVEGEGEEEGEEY
Experimental: 1.5 ul of 10× strength compound, 20 μl of tubulin solution and Triton X-100 at a final concentration of 0.01% were added to each well in a 384 well plate. The reactions were assembled on ice to prevent tubulin pre-polymerization. For kinetic measurements, microtubule polymerization was monitored by reading the fluorescence at 420 nm (due to the incorporation of a fluorescent reporter into microtubules as polymerization occurs) every ten seconds using a Tecan M1000 microplate reader (FIG. 6B). […] Fluorescence increased as polymerization occurred, due to the incorporation of 4′,6-diamidino-2-phenylindole. Fluorescence was monitored every minute for 70 minutes at 37° C.
Tubulin polymerization reactions were carried out according to the manufacturer (Cytoskeleton, BK011P) in the presence of 3 μM colchicine, MI-181, taxol or DMSO. Polymerization was monitored with a Tecan M1000 micro-plate reader at 420 nm for 70 minutes at 37° C. The results are depicted in FIG. 11.

[4] = system: HeLa cells; experiment: Microtubule stability by immunofluorescence microscopy; format: cell-based; details: increasing concentrations, anti-α-tubulin staining
Experimental: Next, microtubule stability was analyzed in HeLa cells treated with increasing concentrations of each of these three compounds by fixing the cells with 4% paraformaldehyde, staining them with Hoechst 33342 (DNA dye) to visualize their DNA and anti-α-tubulin antibodies to visualize microtubule structures and then imaging them by immunofluorescence microscopy.

[5] = system: HeLa cells; experiment: Cell cycle analysis / cell division; format: cell-based; details: 20 hours
Experimental: For cell cycle analysis, HeLa cells were plated in 384 well plates (1500 cells/well) and treated with 10 μM drugs for 20 hours. Cells were then fixed and stained with 5 μM Vybrant DyeCycle Green (Invitrogen) for 1 hour at 37° C. and plates were scanned with an Acumen eX3 (TTP Labtech) fluorescence microplate cytometer using its 488 nm laser and a cell cycle histogram profile was generated for each drug treatment using the CDD (Collaborative Drug Discovery) software. […] Additionally, HeLa cells were treated with increasing concentrations of colchicine and compound 10 for 20 hours and the drug response dose curves were used to measure the mitotic arrest IC50 for each treatment.
Briefly, HeLa cells were treated with increasing concentrations of 10, 10a, and 10b for 20 hours and the drug response dose curves were used to measure the mitotic arrest IC50 for each treatment. Also, the percentage of cells undergoing normal cell division was quantified for DMSO, colchicine, 10b, or taxol-treated cells. Data represent the average±SD of 3 independent experiments, with 20 cells counted for each. Asterisks denotes p-value<0.0001.

[6] = system: β-tubulin; experiment: Crystal structure of T2R-TTL tubulin complex soaked with ligand; format: binding, bovine; details: T2R-TTL crystal soaked 24 hours with 1 mM compound
Experimental: The crystal structure of tubulin bound to two ligands described here was obtained using an established system for tubulin crystal growth. […] Methods in Cell Biology 2010, 95:373-390.) Briefly, bovine αβ-tubulin, human RB3 or rat STMN4 stathmin-like domain, and chicken tubulin tyrosine ligase (TTL) reconstitute to form a stathmin-bound αβ-tubulin (T2R) T2R-TTL complex, which readily crystallizes. […]
The final resolution cutoffs described here were determined optimally from a subset of diffraction images that took into consideration the signal-to-noise ratio for reflection intensities and the random half-data set correlation coefficient, CC1/2 (Karplus P. A., Diederichs K. Linking crystallographic model and data quality. Science 2012, (New York, N.Y.) 336:1030-1033.) […]

Compound	IC50 [1]	IC50 [2]	inhibition of microtubule (tubulin) polymerization in vitro [3]	microtubule stability in treated cells [4]	effect on cell division and cell death [5]	binding to tubulin in crystal structure [6]
O=c1[nH]c(/C=C/c2ccccc2)nc2sc3c(c12)CCCC3 [Compound 10, (E)-2-styryl-5,6,7,8-tetrahydrobenzo[4,5]thieno[2,3-d]pyrimidin-4(3H)-one]	552 nM	352 nM	potent inhibitors of microtubule polymerization similar to colchicine	destabilized in a drug dose-dependent manner	inhibit cell division and trigger apoptotic cell death	
CCOc1ccc(C2=Nn3c(nnc3-c3ccccc3OC)SC2)cc1 [Compound C2, reference compound]						bound to β-tubulin
